Results on two molecules are retold here after article PMC10882719 (Frontiers in Neuroscience, 2024).

Common to all, as to type: cell-based
The target in experiment [1] is T1, 168 GPCRs (Homo sapiens, UniProt O95977).
T1 construct: host or cells: PathHunter cell lines
T1 sequence (O95977 1-384): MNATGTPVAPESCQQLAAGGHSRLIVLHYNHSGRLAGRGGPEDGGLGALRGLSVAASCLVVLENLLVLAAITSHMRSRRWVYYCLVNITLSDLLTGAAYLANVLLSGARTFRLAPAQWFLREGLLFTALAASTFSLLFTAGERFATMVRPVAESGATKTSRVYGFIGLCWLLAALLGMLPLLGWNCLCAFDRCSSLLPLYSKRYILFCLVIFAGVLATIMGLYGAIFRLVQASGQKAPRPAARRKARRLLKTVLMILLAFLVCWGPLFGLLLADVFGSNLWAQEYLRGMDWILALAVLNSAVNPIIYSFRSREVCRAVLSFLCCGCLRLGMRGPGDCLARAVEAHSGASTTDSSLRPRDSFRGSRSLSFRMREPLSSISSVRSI

The target in experiment [2] is T2, 168 GPCRs (Homo sapiens, UniProt P32248).
T2 construct: host or cells: PathHunter cell lines
T2 sequence (P32248 25-378): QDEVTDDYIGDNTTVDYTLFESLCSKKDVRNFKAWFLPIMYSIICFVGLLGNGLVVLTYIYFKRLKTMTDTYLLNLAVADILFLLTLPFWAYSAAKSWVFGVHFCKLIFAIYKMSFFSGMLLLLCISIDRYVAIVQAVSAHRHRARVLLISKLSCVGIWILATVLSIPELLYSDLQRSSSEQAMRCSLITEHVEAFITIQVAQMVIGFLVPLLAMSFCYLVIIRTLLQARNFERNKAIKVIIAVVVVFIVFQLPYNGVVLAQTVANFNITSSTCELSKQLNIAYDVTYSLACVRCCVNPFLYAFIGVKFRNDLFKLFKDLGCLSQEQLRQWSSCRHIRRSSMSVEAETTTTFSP

The target of experiment [3] is T3, 168 GPCRs (Homo sapiens, UniProt Q8TDS4).
T3 construct: host or cells: PathHunter cell lines
The following applies: GPR109A.

Experiment [4] concerns the target T4, 168 GPCRs (Homo sapiens, UniProt P46663).
T4 construct: host or cells: PathHunter cell lines
T4 sequence (P46663 1-353): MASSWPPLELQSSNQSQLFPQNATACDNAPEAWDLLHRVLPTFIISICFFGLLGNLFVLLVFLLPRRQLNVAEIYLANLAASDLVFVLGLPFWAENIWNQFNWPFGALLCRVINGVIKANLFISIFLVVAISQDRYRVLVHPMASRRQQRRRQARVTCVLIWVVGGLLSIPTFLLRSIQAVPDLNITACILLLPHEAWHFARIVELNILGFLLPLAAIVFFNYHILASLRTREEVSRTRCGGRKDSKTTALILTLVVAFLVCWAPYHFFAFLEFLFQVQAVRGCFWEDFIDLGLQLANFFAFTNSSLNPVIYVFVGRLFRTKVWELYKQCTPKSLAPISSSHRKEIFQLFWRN

The target in experiment [5] is T5, 168 GPCRs (Homo sapiens, UniProt Q9Y5Y4).
T5 construct: host or cells: PathHunter cell lines
T5 sequence (Q9Y5Y4 1-395): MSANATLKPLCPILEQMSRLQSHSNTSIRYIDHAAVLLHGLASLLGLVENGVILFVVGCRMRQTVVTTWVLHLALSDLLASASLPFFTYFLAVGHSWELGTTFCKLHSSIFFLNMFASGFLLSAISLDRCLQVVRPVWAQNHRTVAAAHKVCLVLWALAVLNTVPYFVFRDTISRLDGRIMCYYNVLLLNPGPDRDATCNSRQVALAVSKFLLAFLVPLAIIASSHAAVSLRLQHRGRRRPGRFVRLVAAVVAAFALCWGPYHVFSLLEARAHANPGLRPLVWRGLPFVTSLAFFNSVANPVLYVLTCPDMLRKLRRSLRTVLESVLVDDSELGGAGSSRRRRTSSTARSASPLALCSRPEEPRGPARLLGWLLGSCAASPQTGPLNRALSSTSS

The target of experiment [6] is T6, 168 GPCRs (Homo sapiens, UniProt P47871).
T6 construct: host or cells: PathHunter cell lines
The following applies: GCGR.

Where two headings read alike, the source gives them in different places.

T6 sequence (P47871 26-477): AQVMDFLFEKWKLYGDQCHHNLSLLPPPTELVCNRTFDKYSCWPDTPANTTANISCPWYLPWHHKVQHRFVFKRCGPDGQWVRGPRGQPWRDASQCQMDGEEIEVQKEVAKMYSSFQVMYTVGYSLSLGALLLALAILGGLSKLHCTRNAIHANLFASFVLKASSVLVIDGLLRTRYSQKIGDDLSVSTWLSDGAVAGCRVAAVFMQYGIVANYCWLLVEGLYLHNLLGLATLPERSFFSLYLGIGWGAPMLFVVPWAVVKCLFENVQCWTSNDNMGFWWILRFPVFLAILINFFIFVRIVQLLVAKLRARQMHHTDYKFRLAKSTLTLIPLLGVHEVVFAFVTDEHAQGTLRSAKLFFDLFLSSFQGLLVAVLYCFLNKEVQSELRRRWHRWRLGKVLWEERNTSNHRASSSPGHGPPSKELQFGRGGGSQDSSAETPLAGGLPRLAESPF
T3 sequence (Q8TDS4 whole entry): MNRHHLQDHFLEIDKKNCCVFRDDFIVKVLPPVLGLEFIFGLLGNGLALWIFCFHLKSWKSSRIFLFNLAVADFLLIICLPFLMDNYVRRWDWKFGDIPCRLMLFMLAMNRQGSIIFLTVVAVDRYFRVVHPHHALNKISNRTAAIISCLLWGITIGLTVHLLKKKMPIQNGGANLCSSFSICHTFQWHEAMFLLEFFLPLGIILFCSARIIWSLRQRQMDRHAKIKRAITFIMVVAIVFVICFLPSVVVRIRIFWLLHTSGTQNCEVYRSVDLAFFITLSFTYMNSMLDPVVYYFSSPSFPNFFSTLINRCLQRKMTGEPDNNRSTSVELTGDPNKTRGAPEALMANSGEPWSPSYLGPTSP

Take `CNC(C)C(=O)c1ccc2c(c1)OCO2` (stereo not drawn) [methylone]: the “% Agonist Activity” value is listed as -1.7% on 168 GPCRs [1] (EDG6, 1 uM); -0.3% on 168 GPCRs [1] (EDG6, 10 uM); -3.4% on 168 GPCRs [2] (CCR7, 1 uM); -3.7% at 168 GPCRs [2] (CCR7, 10 uM); -8.7% at 168 GPCRs [3] (1 uM); -4.3% at 168 GPCRs [3] (10 uM). For the same molecule, the “% Agonist Activity” value is on record as -1.7% on 168 GPCRs [4] (BDKRB1, 1 uM); -2.5% at 168 GPCRs [4] (BDKRB1, 10 uM); -5.7% at 168 GPCRs [5] (CRTH2, 1 uM); -5% on 168 GPCRs [5] (CRTH2, 10 uM); -2.3% on 168 GPCRs [6] (1 uM); -3% at 168 GPCRs [6] (10 uM). Besides, the “% Antagonist Activity” value on 168 GPCRs [1] (EDG6, 1 uM) is 13.2%; at 168 GPCRs [1] (EDG6, 10 uM), 7.8%; at 168 GPCRs [2] (CCR7, 1 uM), -8.3%; at 168 GPCRs [2] (CCR7, 10 uM), -3.4%; on 168 GPCRs [3] (1 uM), 1.4%; on 168 GPCRs [3] (10 uM) it was -0.3%. In addition, the “% Antagonist Activity” value at 168 GPCRs [4] (BDKRB1, 1 uM) is 2.8%; on 168 GPCRs [4] (BDKRB1, 10 uM), 12.1%; on 168 GPCRs [5] (CRTH2, 1 uM) it was 9%; at 168 GPCRs [5] (CRTH2, 10 uM), 8.9%; on 168 GPCRs [6] (1 uM), -16%; on 168 GPCRs [6] (10 uM) it was -7.7%.

`CNC(C)Cc1ccc2c(c1)OCO2` (stereo not drawn) [MDMA, 3,4-Methylenedioxy methamphetamine, reference compound]: the “% Agonist Activity” value on 168 GPCRs [1] (EDG6, 1 uM) is listed as 6.3%; at 168 GPCRs [1] (EDG6, 10 uM), 4%; at 168 GPCRs [2] (CCR7, 1 uM), 1.9%; at 168 GPCRs [2] (CCR7, 10 uM), 2.6%; on 168 GPCRs [3] (1 uM), -2.1%; on 168 GPCRs [3] (10 uM) it was 0.4%. Moreover, the “% Agonist Activity” value is on record as -1.2% on 168 GPCRs [4] (BDKRB1, 1 uM); -0.2% at 168 GPCRs [4] (BDKRB1, 10 uM); -4.1% at 168 GPCRs [5] (CRTH2, 1 uM); -3% on 168 GPCRs [5] (CRTH2, 10 uM); -1% at 168 GPCRs [6] (1 uM); -0.9% at 168 GPCRs [6] (10 uM). In addition, the “% Antagonist Activity” value on 168 GPCRs [1] (EDG6, 1 uM) amounted to 14.1%; at 168 GPCRs [1] (EDG6, 10 uM), 18%; on 168 GPCRs [2] (CCR7, 1 uM), 1.5%; at 168 GPCRs [2] (CCR7, 10 uM), 6.8%; on 168 GPCRs [3] (1 uM), 3.7%; at 168 GPCRs [3] (10 uM), 1%. Moreover, the “% Antagonist Activity” value at 168 GPCRs [4] (BDKRB1, 1 uM) is recorded as -17.1%; on 168 GPCRs [4] (BDKRB1, 10 uM), -12.7%; at 168 GPCRs [5] (CRTH2, 1 uM), 19.8%; at 168 GPCRs [5] (CRTH2, 10 uM), 17.2%; on 168 GPCRs [6] (1 uM) it was -1.7%; on 168 GPCRs [6] (10 uM) it was -7.4%.
